Measurements: patent publication US20260266848A1, “COMPOSITIONS AND METHODS FOR DIAGNOSING AND TREATING DYSTONIA” (Duke University, priority 2023, published 2026)

Legend:
DYT-TOR1A MEF EVs = experiment: Quantitative LC-MS/MS proteomics of EVs from drug-treated DYT-TOR1A MEF cultures (ritonavir, salubrinal); type: cell-based, mouse; design: key to RTV Corrective Direction / RTV Corrective Direction, Grwd1 / RTV Corrective Direction, Srrm2 / RTV Corrective Direction, Rbm17 / RTV Corrective Direction, Dcaf8 / RTV Corrective Direction, Edil3 / RTV Corrective Direction, Timp3 / RTV Corrective Direction, Heatr3 / RTV Corrective Direction, Brd4 / RTV Corrective Direction, P3h4 / RTV Corrective Direction, Pacsin3 / RTV Corrective Direction, Naa50 / RTV Corrective Direction, Lpar6 / RTV Corrective Direction, Ndrg1 / RTV Corrective Direction, Kntc1 / RTV Corrective Direction, Cdk11b / RTV Corrective Direction, Sumo1 / RTV Corrective Direction, Lsm4 / RTV Corrective Direction, Hmga2 / RTV Corrective Direction, Cstf1 / RTV Corrective Direction, Tes / RTV Corrective Direction, Sbno1 / RTV Corrective Direction, Unc119b / RTV Corrective Direction, Cfdp1 / RTV Corrective Direction, Sec61b: YES = protein abundance effect opposite to DYT/WT; conditions: EV protein abundance
WT MEF EVs = experiment: Quantitative LC-MS/MS proteomics of EVs from ISRIB-treated WT MEF cultures; type: cell-based, mouse; design: key to ISRIB and DYT Parallel Direction / ISRIB and DYT Parallel Direction, Ctdsp1 / ISRIB and DYT Parallel Direction, Pcdh19 / ISRIB and DYT Parallel Direction, Tspan7 / ISRIB and DYT Parallel Direction, Myo1e / ISRIB and DYT Parallel Direction, Plpp3 / ISRIB and DYT Parallel Direction, Sh3bp4 / ISRIB and DYT Parallel Direction, Dnajc7 / ISRIB and DYT Parallel Direction, Drg1 / ISRIB and DYT Parallel Direction, Maea: YES = protein abundance effect similar to DYT/WT; conditions: EV protein abundance

With Akr1b1 the “RTV Corrective Direction” value (DYT-TOR1A MEF EVs; DYT + RTV (ritonavir) vs DYT, direction compared with DYT/WT) was “YES”, the “DYT + RTV/DYT Cohen's d” value (DYT-TOR1A MEF EVs; ritonavir (RTV)-treated DYT vs DYT) was 5.32 and the “WT + ISRIB/WT Cohen's d” value (WT MEF EVs; ISRIB-treated WT vs WT) was −0.22. The “ISRIB and DYT Parallel Direction” value (WT MEF EVs; WT + ISRIB vs WT, direction compared with DYT/WT) was “YES”.
